# Test: Aqueous solubility
# Format: physicochemical
# Source text: The compounds used in this invention have a very low solubility in water.
structure (smiles),measurement,value
"CC(=O)c1ccc2c(c1)[C@H](NC(=O)c1ccc(F)cc1)[C@@H](O)C(C)(C)O2 (relative stereo) [Compound 1, trans-6-acetyl-4S-(4-fluorobenzoylamino)-3,4-dihydro-2,2-dimethyl-2H-1-benzopyran-3R-ol]",USP solubility classification,virtually insoluble
same,aqueous solubility,8 µg/mL

# From patent US20030165570A1, “Pharmaceutical compositions containing micronized bicyclic drugs” (SmithKline Beecham p.l.c., priority 1997, published 2003)
